Experimental findings from US8987315B2, “Metalloenzyme inhibitor compounds” (Innocrin Pharmaceuticals, Inc., priority 2009, dated 2015) are described below.

The target of one test is CYP17 (Rattus norvegicus (Rat), UniProt P11715). Briefly: Inhibition of CYP17 (rat testicular microsomes). The format is biochemical. The settings on record: pooled rat testicular microsomes.
In a further test the target is CYP2C9 (Homo sapiens (Human), UniProt P11712). Briefly: Inhibition of liver cytochrome P450 enzymes (human liver microsomes), CYP2C9. (In general: Microsomes from liver hold many membrane-bound enzymes, among them those of drug oxidation.)
The target of a further test is CYP3A4 (Homo sapiens (Human), UniProt P08684). Nature of the test: Inhibition of liver cytochrome P450 enzymes (human liver microsomes), CYP3A4.
The next test concerns the target CYP2C19 (Homo sapiens (Human), UniProt P33261). Nature of the test: Inhibition of liver cytochrome P450 enzymes (human liver microsomes), CYP2C19.

Chain of CYP2C19 (P33261 whole entry): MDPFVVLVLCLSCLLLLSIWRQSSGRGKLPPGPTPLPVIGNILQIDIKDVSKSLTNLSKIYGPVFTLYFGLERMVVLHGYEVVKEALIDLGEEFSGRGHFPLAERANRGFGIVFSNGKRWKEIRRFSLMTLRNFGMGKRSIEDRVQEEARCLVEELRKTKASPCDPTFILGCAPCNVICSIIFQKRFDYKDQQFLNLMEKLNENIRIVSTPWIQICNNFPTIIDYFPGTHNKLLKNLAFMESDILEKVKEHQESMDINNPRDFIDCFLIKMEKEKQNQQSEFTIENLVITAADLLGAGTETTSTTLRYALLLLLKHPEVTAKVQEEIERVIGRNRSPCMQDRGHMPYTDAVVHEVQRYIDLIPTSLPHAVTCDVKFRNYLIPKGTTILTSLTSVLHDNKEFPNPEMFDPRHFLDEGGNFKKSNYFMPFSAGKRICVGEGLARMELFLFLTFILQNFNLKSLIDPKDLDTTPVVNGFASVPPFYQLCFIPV
Chain of CYP2C9 (P11712 whole entry): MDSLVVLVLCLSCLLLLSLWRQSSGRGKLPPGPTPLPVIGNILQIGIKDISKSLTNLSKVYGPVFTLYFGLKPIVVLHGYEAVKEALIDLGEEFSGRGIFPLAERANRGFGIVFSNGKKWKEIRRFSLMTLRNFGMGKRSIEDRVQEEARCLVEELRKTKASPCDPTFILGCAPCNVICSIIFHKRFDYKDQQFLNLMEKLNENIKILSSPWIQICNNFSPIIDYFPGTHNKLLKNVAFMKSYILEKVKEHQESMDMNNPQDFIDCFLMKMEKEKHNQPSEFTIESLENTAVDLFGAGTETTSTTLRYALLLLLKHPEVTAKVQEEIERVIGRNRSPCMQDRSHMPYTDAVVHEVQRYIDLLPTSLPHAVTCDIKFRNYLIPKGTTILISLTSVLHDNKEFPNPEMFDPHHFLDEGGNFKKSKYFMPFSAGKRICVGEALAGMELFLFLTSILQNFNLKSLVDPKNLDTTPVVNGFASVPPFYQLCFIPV
Chain of CYP17 (P11715 whole entry): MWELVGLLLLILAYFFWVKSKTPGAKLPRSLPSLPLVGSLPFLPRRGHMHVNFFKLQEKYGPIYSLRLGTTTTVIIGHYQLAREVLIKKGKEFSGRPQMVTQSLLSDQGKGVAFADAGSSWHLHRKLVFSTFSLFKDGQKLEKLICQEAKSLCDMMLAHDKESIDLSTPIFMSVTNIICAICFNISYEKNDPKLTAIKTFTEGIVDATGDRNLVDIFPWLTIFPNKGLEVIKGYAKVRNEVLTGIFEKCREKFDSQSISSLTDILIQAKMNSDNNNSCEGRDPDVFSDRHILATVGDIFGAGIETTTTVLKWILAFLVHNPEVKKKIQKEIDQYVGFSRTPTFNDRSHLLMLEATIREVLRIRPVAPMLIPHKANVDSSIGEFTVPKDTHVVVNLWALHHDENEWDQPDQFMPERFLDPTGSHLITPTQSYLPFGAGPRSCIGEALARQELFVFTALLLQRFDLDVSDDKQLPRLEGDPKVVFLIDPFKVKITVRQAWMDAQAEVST
Chain of CYP3A4 (P08684 whole entry): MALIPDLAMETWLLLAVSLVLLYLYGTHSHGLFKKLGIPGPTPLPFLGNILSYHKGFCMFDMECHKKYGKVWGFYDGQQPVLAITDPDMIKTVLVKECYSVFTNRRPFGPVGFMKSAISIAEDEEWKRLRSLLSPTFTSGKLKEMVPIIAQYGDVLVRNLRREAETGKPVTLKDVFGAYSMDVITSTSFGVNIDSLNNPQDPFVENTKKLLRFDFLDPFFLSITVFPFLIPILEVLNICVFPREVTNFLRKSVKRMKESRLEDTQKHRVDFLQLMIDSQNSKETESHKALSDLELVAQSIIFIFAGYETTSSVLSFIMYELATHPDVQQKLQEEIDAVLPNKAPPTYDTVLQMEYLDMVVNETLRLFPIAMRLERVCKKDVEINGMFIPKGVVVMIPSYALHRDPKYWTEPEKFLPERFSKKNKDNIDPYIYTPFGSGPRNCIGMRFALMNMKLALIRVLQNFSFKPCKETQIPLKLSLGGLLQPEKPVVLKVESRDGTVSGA

For the compound `CC(C)C(c1ccc2cc(OC(F)F)c(OC(F)F)cc2c1)n1ncnn1` (centres unmarked) [Example 1, 2-(1-(6,7-bis(difluoromethoxy)naphthalen-2-yl)-2-methylpropyl)-2H-tetrazole], the IC50 is 400 nM on CYP17, 7 µM at CYP2C9, over 200 µM against CYP3A4 and 37 µM against CYP2C19.

Turning to `CC(C)C(c1ccc2cc(OCC(F)(F)F)ccc2c1)n1ncnn1` (centres unmarked) [Example 2, 2-(2-Methyl-1-(6-(2,2,2-trifluoroethoxy)naphthalen-2-yl)propyl)-2H-tetrazole], the IC50 at CYP17 is 460 nM; against CYP2C9, 27 µM; at CYP2C19, 45 µM.

`COc1cc2ccc(C(C(C)C)n3ncnn3)cc2cc1OC` (centres unmarked) [Example 3, 2-(1-(6,7-Dimethoxynaphthalen-2-yl)-2-methylpropyl)-2H-tetrazole]: the IC50 at CYP17 is 270 nM; against CYP2C9, 4.8 µM; against CYP3A4, over 200 µM; at CYP2C19 it was 30 µM.

As for `CC(C)C(c1ccc2cc(OC(F)F)ccc2c1)n1ncnn1` (centres unmarked) [Example 4, 2-(1-(6-(difluoromethoxy)naphthalen-2-yl)-2-methylpropyl)-2H-tetrazole], the IC50 at CYP17 came to 210 nM; against CYP2C9, 15 µM; at CYP2C19, 35 µM.

Broadly, the IC50 is the concentration that gives 50% inhibition. Read a low IC50 as inhibition by little substance.
